The source made the active and inactive calls. The calls are words filed in the database; no cut-off is given here.

The subject of data set [1] is NCI-H1975. The data set is described as follows: Antitumor activity against human NCI-H1975 cells xenografted in BALB/c mouse assessed as tumor regression at 10 mg/kg/day, po. In kind it is functional, organism-based.
The species entered for data set [2] is Mus musculus. The following applies: BALB/c, dose 10.0 mg/kg/day, route po.
Data set [3] concerns Mus musculus. The data set is described as follows: In vivo inhibition of EGFR L858R/T790M mutant in NCI-H1975 cells xenografted BALB/c mouse assessed as inhibition of AKT phosphorylation at Ser473 residue in tumor at 20 mg/kg/day, ip by immunoblot analysis. In kind it is functional, organism-based.
Data set [4] is described as follows: Toxicity in BALB/c mouse xenografted with human NCI-H1975 cells assessed as change in heart morphological changes at 5 to 20 mg/kg/day, ip by hematoxylin-eosin staining based analysis. In kind it is organism-based. The following applies: in vivo, dose 5-20 mg/kg/day.
Data set [5] concerns NCI-H1975. The data set is described as follows: Induction of apoptosis in human NCI-H1975 cells assessed as induction of PARP cleavage pretreated with compound for 4 hrs followed by incubation with EGF for 10 mins by western blot analysis. Type of data set: functional, cell-based. The settings on record: dose 0.1-10 µM, time 250.0 min.
Data set [6] is described as follows: Apparent volume of distribution in Sprague-Dawley rat at 1 mg/kg, iv by LC-MS analysis. Type of data set: ADME, organism-based. The following applies: in vivo, read-out: Vz.
In data set [7] the test system is Epidermal growth factor receptor (Homo sapiens), P00533 [L858R,T790M]. As to the kind of experiment: Inhibition of EGFR L858R/T790M mutant in N-(3-((6-Fluoro-2-((4-(4-methylpiperazin-1-yl)phenyl)amino)quinazolin-4-yl)amino)phenyl)acrylamide-resistant human NCI-H1975 cells assessed as inhibition of EGF-induced Akt phosphorylation at Ser473 residue pretreated with compound for 4 hrs followed by incubation with EGF for 10 mins by western blot analysis. Type of data set: cell-based. The settings on record: time 250.0 min.

The test system is the same in data set [8]. The data set is described as follows: Inhibition of EGFR L858R/T790M mutant in osimertinib-resistant human NCI-H1975 cells assessed as inhibition of EGF-induced Akt phosphorylation at Ser473 residue pretreated with compound for 4 hrs followed by incubation with EGF for 10 mins by western blot analysis. Type of data set: cell-based. The settings on record: time 250.0 min.

Data set [9] is described as follows: Toxicity in BALB/c mouse xenografted with human NCI-H1975 cells assessed as change in spleen morphological changes at 5 to 20 mg/kg/day, ip by hematoxylin-eosin staining based analysis. In kind it is organism-based. The settings on record: in vivo, dose 5-20 mg/kg/day.
Data set [10] concerns NCI-H1975. As to the kind of experiment: Antitumor activity against human NCI-H1975 cells xenografted in ip dosed BALB/c mouse assessed as decrease in tumor weight. The settings on record: dose 5-20 mg/kg/day. In kind it is functional, organism-based.
Data set [11] addresses Proto-oncogene tyrosine-protein kinase Src (Homo sapiens, UniProt P12931). The data set is described as follows: Inhibition of human wild type partial length Src kinase (L240 to L536 residues) expressed in bacterial expression system assessed as residual activity at 1 uM by KINOMEscan analysis.
Data set [12] deals with A549. The data set is described as follows: Induction of apoptosis in human A549 cells assessed as increase in caspase-3/7 activity at 0.1 to 10 uM incubated for 24 hrs by Caspase-Glo reagent based luminescence analysis. In kind it is toxicity, cell-based. The settings on record: a549, 24 h, dose 0.1-10 µM.
Data set [13] deals with Epidermal growth factor receptor (Homo sapiens), P00533 [UNDEFINED MUTATION]. As to the kind of experiment: Inhibition of human EGFR exon del19 mutant assessed as residual activity at 1 uM by KINOMEscan analysis.
The subject of data set [14] is NCI-H1975. The data set is described as follows: Antitumor activity against human NCI-H1975 cells xenografted in BALB/c mouse assessed as inhibition of tumor burden at 20 mg/kg/day, ip. Type of data set: functional, organism-based.
Data set [15] in a line: Toxicity in BALB/c mouse xenografted with human NCI-H1975 cells assessed as change in liver morphological changes at 5 to 20 mg/kg/day, ip by hematoxylin-eosin staining based analysis. In kind it is organism-based. The following applies: in vivo, dose 5-20 mg/kg/day.
Data set [16] is described as follows: Toxicity in BALB/c mouse xenografted with N-(3-((6-Fluoro-2-((4-(4-methylpiperazin-1-yl)phenyl)amino)quinazolin-4-yl)amino)phenyl)acrylamide-resistant human NCI-H1975 cells assessed as effect on body weight at 20 mg/kg/day, ip in presence of ACK1 inhibitor, dasatinib. In kind it is organism-based. The following applies: in vivo.
Data set [17] concerns the target Epidermal growth factor receptor (Homo sapiens, UniProt P00533, L858R/T790M). As to the kind of experiment: Inhibition of human partial length EGFR (R669 to V1011 residues) L858R/T790M mutant expressed in mammalian expression system by KINOMEscan analysis.
The test system of data set [18] is A549. The data set is described as follows: Inhibition of cell migration in human A549 cells at 10 uM incubated for 48 hrs by scratch wound healing assay. The following applies: a549, 48 h. In kind it is toxicity, cell-based.
A short description of data set [19]: Selectivity ratio of IC50 for cytotoxicity against human A-431 cells harboring wild type EGFR to IC50 for antiproliferative activity against human NCI-H1975 cells harboring EGFR L858R/T790M mutant. Type of data set: toxicity, cell-based. The settings on record: read-out: Ratio IC50.
Data set [20] has as its system NCI-H1975. The data set is described as follows: Antiproliferative activity against N-(3-((6-Fluoro-2-((4-(4-methylpiperazin-1-yl)phenyl)amino)quinazolin-4-yl)amino)phenyl)acrylamide-resistant human NCI-H1975 cells assessed as reduction in cell viability at compound:dasatinib concentration ratio of 3:1 to 1:3 measured after 72 hrs in presence of ACK1 inhibitor, Dasatinib by MTT assay. Type of data set: functional, cell-based.

In data set [21] the target is Epidermal growth factor receptor (Homo sapiens, UniProt P00533). As to the kind of experiment: Inhibition of wild type EGFR in human A-431 cells assessed as inhibition of EGF-induced EGFR phosphorylation at Tyr1068 residue at 0.1 to 10 uM pretreated with compound for 4 hrs followed by incubation with EGF for 10 mins by western blot analysis. Type of data set: toxicity, cell-based. The following applies: a-431, 4.167 h, dose 0.1-10 µM, time 250 min.

The subject of data set [22] is Epidermal growth factor receptor (Homo sapiens), P00533 [L858R,T790M]. As to the kind of experiment: Inhibition of human partial length EGFR (R669 to V1011 residues) L858R/T790M mutant expressed in mammalian expression system assessed as residual activity at 1 uM by KINOMEscan analysis.
Data set [23] is described as follows: Toxicity in BALB/c mouse xenografted with N-(3-((6-Fluoro-2-((4-(4-methylpiperazin-1-yl)phenyl)amino)quinazolin-4-yl)amino)phenyl)acrylamide-resistant human NCI-H1975 cells assessed as changes in kidney morphological changes at 20 mg/kg/day, ip in presence of ACK1 inhibitor, dasatinib by hematoxylin-eosin staining based analysis. In kind it is organism-based. The following applies: in vivo.

A short description of data set [24]: Selectivity ratio of IC50 for cytotoxicity against human A549 cells harboring wild type EGFR to IC50 for antiproliferative activity against human NCI-H1975 cells harboring EGFR L858R/T790M mutant. Type of data set: toxicity, cell-based. The settings on record: read-out: Ratio IC50.
Data set [25] in a line: Toxicity in BALB/c mouse xenografted with N-(3-((6-Fluoro-2-((4-(4-methylpiperazin-1-yl)phenyl)amino)quinazolin-4-yl)amino)phenyl)acrylamide-resistant human NCI-H1975 cells assessed as changes in heart morphological changes at 20 mg/kg/day, ip in presence of ACK1 inhibitor, dasatinib by hematoxylin-eosin staining based analysis. The following applies: in vivo. Type of data set: organism-based.

The subject of data set [26] is Epidermal growth factor receptor (Homo sapiens), P00533 [L858R,T790M]. The data set is described as follows: Inhibition of EGFR L858R/T790M mutant in N-(3-((6-Fluoro-2-((4-(4-methylpiperazin-1-yl)phenyl)amino)quinazolin-4-yl)amino)phenyl)acrylamide-resistant human NCI-H1975 cells assessed as inhibition of EGF-induced AKT phosphorylation at Ser473 residue pretreated with compound and ACK1 inhibitor, AIM-100 for 4 hrs followed by incubation with EGF for 10 mins by western blot analysis. In kind it is cell-based. The settings on record: time 250.0 min.

Chain of Proto-oncogene tyrosine-protein kinase Src (P12931 2-536 limits assumed): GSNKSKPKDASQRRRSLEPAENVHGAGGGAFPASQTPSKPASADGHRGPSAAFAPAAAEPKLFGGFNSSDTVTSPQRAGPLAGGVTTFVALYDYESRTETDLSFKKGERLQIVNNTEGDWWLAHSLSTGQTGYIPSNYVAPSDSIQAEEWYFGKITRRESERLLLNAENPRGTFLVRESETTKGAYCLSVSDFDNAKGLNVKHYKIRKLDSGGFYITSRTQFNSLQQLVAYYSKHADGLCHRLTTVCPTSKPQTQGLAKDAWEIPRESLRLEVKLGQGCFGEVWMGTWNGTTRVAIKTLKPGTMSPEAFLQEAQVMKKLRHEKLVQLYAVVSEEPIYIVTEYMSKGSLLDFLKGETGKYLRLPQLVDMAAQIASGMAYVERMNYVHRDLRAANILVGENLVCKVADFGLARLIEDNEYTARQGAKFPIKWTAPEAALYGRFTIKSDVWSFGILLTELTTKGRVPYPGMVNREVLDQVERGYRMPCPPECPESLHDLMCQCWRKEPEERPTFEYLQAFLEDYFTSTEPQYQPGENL

Take `C=CC(=O)Nc1cc(Nc2nccc(-c3cn(C)c4ccccc34)n2)c(OC)cc1N(C)CCN(C)C` [OSIMERTINIB]: the outcome in the data set with NCI-H1975 [1] was Active. Moreover, in the data set listed under Mus musculus [2], the inhibition result is “Active”.
For `C=CC(=O)Nc1cccc(Nc2nc(Nc3ccc(N4CCN(C)CC4)cc3)nc3ccc(F)cc23)c1`, the inhibition entry (in the data set on Mus musculus [3]; in [26]) was “Active” throughout. The Activity result is “Non-Toxic” in data set [4]; “Dose-Dependent Effect” in the data set on NCI-H1975 [5]; “Non-Toxic” in data set [9]; “Dose-Dependent Effect” with NCI-H1975 [10]; 20% in [11]; “Non-Toxic” with A549 [12]. For the same compound, the Activity in data set [13] was 0%; in [15], “Non-Toxic”; in [16], “Non-Toxic”; in the data set with A549 [18], “Non-Toxic”; in data set [22], 1%; in data set [23] it was “Non-Toxic”. In addition, the Activity result in [25] is “Non-Toxic”. Further, in data set [6], the Vd worked out at 2.52 L/kg. Further, the inhibition result in data set [7] and in data set [8] was “inactive” throughout. The outcome in the data set with NCI-H1975 [14] and in the data set on NCI-H1975 [20] was Active. For the same compound, in data set [17], the 50% inhibitory concentration (IC50) stood at 3.5 nM. In addition, the selectivity ratio in [19] was determined as 130; in [24], 211. Also, in [21], the “inhibition (INH)” value was “Not Active”.

These data come from ChEMBL document CHEMBL5380860, “Design, Synthesis, and Antitumor Activity of Potent and Selective EGFR L858R/T790M Inhibitors and Identification of a Combination Therapy to Overcome Acquired Resistance in Models of Non-small-cell Lung Cancer” (J Med Chem, 2023).
